From patent US7612200B2, “Inhibitors of protein kinases” (Locus Pharmaceuticals, Inc., priority 2004, dated 2009) come the findings set out here.

Common to all, as to format: biochemical
One assay deals with Flt1 (Homo sapiens, UniProt P17948). Kind of assay: Protein kinase inhibition, Flt1. To be noted: Rate (μM) 2, read-out: % Control.
The target of assay [1] is Lyn (Mus musculus, UniProt P25911). The experiment in a line: Protein kinase inhibition, Lyn (mouse). To be noted: Rate (μM) 2, read-out: % Control.
Assay [2] deals with Lyn (Homo sapiens, UniProt P07948). The experiment in a line: Lyn Kinase Activity. To be noted: compound at 2 μm. The procedure:
(§1) Lyn Kinase Activity: In a final reaction volume of 25 μl, Lyn (h) (5-10 mU) is incubated with 50 mM Tris pH 7.5, 0.1 mM EGTA, 0.1 mM Na3VO4, 0.1% β-mercaptoethanol, 0.1 mg/ml poly(Glue, Tyr) 4:1, 10 mM MgAcetate and [γ-^33P-ATP] (specific activity approx. 500 cpm/pmol, concentration as required). The reaction is initiated by the addition of the MgATP mix. After incubation for 40 minutes at room temperature, the reaction is stopped by the addition of 5 μl of a 3% phosphoric acid solution. 10 μl of the reaction is then spotted onto a Filtermat A and washed three times for 5 minutes in 75 mM phosphoric acid and once in methanol prior to drying and scintillation counting.

Another assay concerns the target p38γ (Homo sapiens, UniProt P53778). Kind of assay: SAPK3 Kinase Activity (p38γ). As to the method:
SAPK3 Kinase Activity: In a final reaction volume of 25 μl, SAPK3 (h) (5-10 mU) is incubated with 25 mM Tris pH 7.5, 0.02 mM EGTA, 0.33 mg/ml myelin basic protein, 10 mM MgAcetate and [γ-^33P-ATP] (specific activity approx. 500 cpm/[…], concentration as required). The reaction is initiated by the addition of the MgATP mix. After incubation for 40 minutes at room temperature, the reaction is stopped by the addition of 5 μL of a 3% phosphoric acid solution. 10 μL of the reaction is the spotted onto a P30 filtermat and washed three times for 5 minutes in 75 mM phosphoric acid and once in methanol prior to drying and scintillation counting.

In the next assay the target is MINK (Homo sapiens, UniProt Q8N4C8). The experiment in a line: Protein kinase inhibition, MINK. Particulars: Rate (μM) 2, read-out: % Control.
The next assay concerns the target JNK2α2 (Homo sapiens, UniProt P45984). Kind of assay: JNK2α2 Kinase Activity. The procedure:
as §1, with “JNK2α2” for “Lyn”, “EGTA,” for “EGTA, 0.1 mM Na3VO4,”, “3 μM ATF2,” for “0.1 mg/ml poly(Glue, Tyr) 4:1,”, “P30 filtermat” for “Filtermat A”

Another assay concerns the target P70S6K (Homo sapiens, UniProt P23443). Kind of assay: Protein kinase inhibition, P70S6K. To be noted: Rate (μM) 2, read-out: % Control.
A further assay deals with Lck (Homo sapiens, UniProt P06239). The experiment in a line: Lck Kinase Activity. As to the method:
as §1, with “Lck” for “Lyn”, “[…], Lck” for “μl, Lyn”, “250 μM KVEKIGEGTYGVVYK (Cdc2 peptide),” for “0.1% β-mercaptoethanol, 0.1 mg/ml poly(Glue, Tyr) 4:1,”, “P30 filtermat” for “Filtermat A”

The target of the next assay is MuSK (Homo sapiens, UniProt O15146). The experiment in a line: Protein kinase inhibition, MuSK. Particulars: Rate (μM) 2, read-out: % Control.
In the next assay the target is ROCKI (Homo sapiens, UniProt Q13464). The experiment in a line: Protein kinase inhibition, ROCKI (human). To be noted: Rate (μM) 2, read-out: % Control.
A further assay has as its target EphA1 (Homo sapiens, UniProt P21709). Kind of assay: Protein kinase inhibition, EphA1. To be noted: Rate (μM) 2, read-out: % Control.
The target of a further assay is FGFR2 (Homo sapiens, UniProt P21802). Kind of assay: Protein kinase inhibition, FGFR2. To be noted: Rate (μM) 2, read-out: % Control.
The target of the next assay is DDR2 (Homo sapiens, UniProt Q16832). The experiment in a line: Protein kinase inhibition, DDR2. Particulars: Rate (μM) 2, read-out: % Control.
Another assay addresses Hck (Homo sapiens, UniProt P08631). Kind of assay: Protein kinase inhibition, Hck. To be noted: Rate (μM) 2, read-out: % Control.
Another assay deals with KDR (Homo sapiens, UniProt P35968). Kind of assay: Protein kinase inhibition, KDR. To be noted: Rate (μM) 2, read-out: % Control.
A further assay addresses JNK3 (Homo sapiens, UniProt P53779). The experiment in a line: JNK3 Kinase Activity. To be noted: compound at 2 μm. As to the method:
as §1, with “JNK3” for “Lyn”, “EGTA,” for “EGTA, 0.1 mM Na3VO4,”, “250 μM peptide,” for “0.1 mg/ml poly(Glue, Tyr) 4:1,”, “P30 filtermat” for “Filtermat A”

In the next assay the target is Pyk2 (Homo sapiens, UniProt Q14289). Kind of assay: Protein kinase inhibition, Pyk2. Particulars: Rate (μM) 2, read-out: % Control.
The target of a further assay is Ros (Homo sapiens, UniProt P08922). Kind of assay: Protein kinase inhibition, Ros. To be noted: Rate (μM) 2, read-out: % Control.

Sequence of JNK2α2 (P45984 whole entry): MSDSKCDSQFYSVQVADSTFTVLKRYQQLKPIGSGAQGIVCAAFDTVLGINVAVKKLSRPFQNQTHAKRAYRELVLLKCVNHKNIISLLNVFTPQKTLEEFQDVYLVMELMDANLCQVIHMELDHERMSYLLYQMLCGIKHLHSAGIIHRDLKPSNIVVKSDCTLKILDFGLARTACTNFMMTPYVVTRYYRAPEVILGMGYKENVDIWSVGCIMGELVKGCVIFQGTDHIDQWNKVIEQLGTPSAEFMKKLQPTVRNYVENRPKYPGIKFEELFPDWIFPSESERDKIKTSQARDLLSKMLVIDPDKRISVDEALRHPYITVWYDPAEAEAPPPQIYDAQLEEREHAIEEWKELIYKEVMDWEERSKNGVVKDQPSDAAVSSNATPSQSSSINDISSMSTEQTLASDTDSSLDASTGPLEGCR
Sequence of p38γ (P53778 whole entry): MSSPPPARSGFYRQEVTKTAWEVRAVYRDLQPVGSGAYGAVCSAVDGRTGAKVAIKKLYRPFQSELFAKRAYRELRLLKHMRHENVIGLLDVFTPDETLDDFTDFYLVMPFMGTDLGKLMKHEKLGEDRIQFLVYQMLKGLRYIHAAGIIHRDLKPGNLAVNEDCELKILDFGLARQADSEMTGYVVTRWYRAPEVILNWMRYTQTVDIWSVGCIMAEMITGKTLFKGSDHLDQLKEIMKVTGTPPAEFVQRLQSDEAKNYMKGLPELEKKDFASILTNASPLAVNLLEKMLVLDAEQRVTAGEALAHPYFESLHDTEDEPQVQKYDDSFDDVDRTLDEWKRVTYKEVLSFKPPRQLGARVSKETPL
Sequence of Lck (P06239 whole entry): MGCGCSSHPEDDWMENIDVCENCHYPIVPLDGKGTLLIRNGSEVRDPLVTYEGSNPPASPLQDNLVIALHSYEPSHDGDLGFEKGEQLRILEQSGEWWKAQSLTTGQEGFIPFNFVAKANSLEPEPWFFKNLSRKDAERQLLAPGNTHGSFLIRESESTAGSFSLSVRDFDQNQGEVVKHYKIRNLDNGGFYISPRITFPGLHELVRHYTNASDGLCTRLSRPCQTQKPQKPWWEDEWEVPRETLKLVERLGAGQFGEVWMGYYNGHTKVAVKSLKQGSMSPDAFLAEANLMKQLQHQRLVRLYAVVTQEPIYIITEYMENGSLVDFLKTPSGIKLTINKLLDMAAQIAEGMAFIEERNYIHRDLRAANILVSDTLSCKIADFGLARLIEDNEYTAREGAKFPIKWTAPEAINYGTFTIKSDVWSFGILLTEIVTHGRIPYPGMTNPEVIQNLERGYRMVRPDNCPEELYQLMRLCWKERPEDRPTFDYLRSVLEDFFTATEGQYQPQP
Sequence of JNK3 (P53779 whole entry): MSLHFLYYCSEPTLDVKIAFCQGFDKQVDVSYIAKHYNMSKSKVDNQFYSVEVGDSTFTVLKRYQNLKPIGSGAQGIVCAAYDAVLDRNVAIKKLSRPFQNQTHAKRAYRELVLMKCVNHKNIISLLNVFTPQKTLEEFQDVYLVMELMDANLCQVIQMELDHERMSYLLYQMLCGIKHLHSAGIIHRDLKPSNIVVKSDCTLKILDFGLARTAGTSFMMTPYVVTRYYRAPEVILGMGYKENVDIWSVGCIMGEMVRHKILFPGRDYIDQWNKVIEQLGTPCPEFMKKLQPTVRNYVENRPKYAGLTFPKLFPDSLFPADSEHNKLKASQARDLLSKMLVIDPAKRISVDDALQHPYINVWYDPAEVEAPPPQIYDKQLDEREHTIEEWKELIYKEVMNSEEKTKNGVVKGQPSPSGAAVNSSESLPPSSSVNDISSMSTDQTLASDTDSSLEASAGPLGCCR
Sequence of Hck (P08631 whole entry): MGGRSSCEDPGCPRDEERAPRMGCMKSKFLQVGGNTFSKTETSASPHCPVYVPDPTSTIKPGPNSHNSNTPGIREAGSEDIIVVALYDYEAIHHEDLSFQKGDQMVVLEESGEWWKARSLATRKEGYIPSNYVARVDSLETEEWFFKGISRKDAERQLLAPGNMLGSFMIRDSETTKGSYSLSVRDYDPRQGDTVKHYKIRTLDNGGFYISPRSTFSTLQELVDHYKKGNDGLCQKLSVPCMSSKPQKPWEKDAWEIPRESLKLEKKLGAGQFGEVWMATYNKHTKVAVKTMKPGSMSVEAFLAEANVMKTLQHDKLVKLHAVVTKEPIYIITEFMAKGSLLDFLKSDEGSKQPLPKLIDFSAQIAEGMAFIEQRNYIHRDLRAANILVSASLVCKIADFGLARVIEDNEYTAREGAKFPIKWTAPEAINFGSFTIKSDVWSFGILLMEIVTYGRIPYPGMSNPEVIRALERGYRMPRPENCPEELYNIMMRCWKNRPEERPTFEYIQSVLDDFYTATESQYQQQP
Sequence of ROCKI (Q13464 whole entry): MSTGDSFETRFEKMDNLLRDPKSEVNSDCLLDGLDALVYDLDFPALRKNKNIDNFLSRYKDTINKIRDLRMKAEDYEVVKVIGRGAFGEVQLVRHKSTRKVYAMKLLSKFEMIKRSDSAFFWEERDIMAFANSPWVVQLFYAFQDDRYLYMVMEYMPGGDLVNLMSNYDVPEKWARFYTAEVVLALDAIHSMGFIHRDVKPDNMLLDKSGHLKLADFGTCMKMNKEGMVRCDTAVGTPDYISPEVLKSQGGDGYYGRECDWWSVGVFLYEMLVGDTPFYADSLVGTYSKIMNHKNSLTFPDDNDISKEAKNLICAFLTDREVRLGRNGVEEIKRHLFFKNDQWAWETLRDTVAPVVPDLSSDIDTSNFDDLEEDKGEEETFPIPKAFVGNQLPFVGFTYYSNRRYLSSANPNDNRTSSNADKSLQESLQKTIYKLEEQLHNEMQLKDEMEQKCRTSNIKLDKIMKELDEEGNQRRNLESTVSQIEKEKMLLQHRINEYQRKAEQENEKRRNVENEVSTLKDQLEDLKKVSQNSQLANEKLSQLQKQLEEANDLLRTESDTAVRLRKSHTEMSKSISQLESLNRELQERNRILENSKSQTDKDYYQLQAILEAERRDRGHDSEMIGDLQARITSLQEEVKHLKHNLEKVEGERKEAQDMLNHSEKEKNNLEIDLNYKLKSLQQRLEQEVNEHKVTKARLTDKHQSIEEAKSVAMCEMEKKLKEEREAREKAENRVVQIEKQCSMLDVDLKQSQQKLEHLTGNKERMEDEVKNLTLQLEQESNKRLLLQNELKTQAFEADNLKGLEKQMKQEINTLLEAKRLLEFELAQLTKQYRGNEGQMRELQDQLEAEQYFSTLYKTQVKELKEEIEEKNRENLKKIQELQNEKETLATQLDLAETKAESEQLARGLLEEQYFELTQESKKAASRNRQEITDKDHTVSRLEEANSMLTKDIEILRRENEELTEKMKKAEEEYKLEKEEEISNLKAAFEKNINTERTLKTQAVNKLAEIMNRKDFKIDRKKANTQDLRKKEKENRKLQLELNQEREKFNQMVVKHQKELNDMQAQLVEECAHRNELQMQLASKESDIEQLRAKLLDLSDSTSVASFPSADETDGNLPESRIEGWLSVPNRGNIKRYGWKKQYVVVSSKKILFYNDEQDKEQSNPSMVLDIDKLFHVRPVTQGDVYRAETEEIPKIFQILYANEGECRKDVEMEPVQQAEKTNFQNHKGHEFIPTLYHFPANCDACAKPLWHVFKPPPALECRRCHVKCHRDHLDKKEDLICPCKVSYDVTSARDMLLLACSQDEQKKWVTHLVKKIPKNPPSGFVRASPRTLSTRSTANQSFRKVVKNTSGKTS
Sequence of EphA1 (P21709 26-976): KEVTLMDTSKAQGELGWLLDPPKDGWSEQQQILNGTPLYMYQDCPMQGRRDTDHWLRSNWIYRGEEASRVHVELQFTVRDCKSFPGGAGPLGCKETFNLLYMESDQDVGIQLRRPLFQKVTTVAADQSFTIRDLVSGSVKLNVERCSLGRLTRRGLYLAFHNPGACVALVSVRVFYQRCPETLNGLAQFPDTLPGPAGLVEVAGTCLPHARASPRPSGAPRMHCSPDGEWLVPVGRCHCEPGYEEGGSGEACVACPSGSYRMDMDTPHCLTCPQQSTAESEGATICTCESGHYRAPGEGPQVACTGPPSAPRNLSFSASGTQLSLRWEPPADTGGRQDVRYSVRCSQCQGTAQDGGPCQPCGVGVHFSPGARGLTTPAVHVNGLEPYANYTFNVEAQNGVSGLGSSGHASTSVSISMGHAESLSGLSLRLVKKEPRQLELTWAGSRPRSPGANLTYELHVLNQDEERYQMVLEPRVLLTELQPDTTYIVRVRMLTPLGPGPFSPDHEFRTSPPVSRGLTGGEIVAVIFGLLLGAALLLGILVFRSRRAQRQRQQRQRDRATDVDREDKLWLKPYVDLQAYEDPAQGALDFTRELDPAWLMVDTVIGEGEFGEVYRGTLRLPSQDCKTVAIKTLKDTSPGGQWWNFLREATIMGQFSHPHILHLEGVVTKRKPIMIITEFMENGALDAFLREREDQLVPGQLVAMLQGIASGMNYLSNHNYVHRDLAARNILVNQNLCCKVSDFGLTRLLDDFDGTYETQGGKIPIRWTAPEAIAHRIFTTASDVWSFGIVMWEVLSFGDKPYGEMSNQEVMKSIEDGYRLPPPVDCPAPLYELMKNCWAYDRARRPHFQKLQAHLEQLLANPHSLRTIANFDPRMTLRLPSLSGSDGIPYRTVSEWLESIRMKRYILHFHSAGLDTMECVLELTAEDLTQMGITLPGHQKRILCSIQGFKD

Consider `CC(C)(C)c1cc(C(=O)N2CCS(=O)(=O)CC2)c(NC(=O)Nc2ccc(Oc3ccncc3)cc2)s1` [Example 3, 1-[5-tert-Butyl-3-(1,1-dioxo-1λ^6-thiomorpholine-4-carbonyl)thiophen-2-yl]-3-[4-(pyridin-4-yloxy)phenyl]urea], for which the remaining activity at 2 µM on Flt1 lay in the range of 76 to 100%; at Lyn [1], 76 to 100%; on p38γ (40 min, P38g, Human, Rate (μM) 2, read-out: % Control) it was 76 to 100%; on MINK, 51 to 75%; on P70S6K, 51 to 75%; at Lck (40 min, Lck, Human, Rate (μM) 2, read-out: % Control), 51 to 75%. The remaining activity at 2 µM at MuSK lay within 76 to 100%; at ROCKI it was 51 to 75%; on EphA1, 76 to 100%; at FGFR2, 51 to 75%; at DDR2 it was 76 to 100%; on Hck it was 76 to 100%. For the same compound, the remaining activity at 2 µM at KDR lay in the range of 76 to 100%; at Pyk2, 51 to 75%; at Ros, 76 to 100%. Moreover, the “% Inhibition at 2 μm” value at Lyn [2] was 76-100%; on p38γ (p38γ, compound at 2 μm) it was 76-100%; at JNK2α2 (JNK2a2, compound at 2 μm), 26-50%; on Lck (LCK, compound at 2 μm), 51-75%; on JNK3, 0-25%. Further, the “% inhibition” value at JNK2α2 (JNK2α2, Human, Rate (μM) 2) was 26-50%.
